Assay results published in ChEMBL document CHEMBL5550107, “Fluorescent probes and degraders of the sterol transport protein Aster-A” (Bioorg Med Chem, 2024).
Activity calls are given as the source filed them. No cut-off for these calls is given here.

How the values were obtained:
Protein Aster-A [1] = biological target: T1, Protein Aster-A (Homo sapiens, UniProt Q96CP6); experiment: Binding affinity to aster A (unknown origin) assessed as change in fluorescence intensity
T1 sequence (Q96CP6 whole entry): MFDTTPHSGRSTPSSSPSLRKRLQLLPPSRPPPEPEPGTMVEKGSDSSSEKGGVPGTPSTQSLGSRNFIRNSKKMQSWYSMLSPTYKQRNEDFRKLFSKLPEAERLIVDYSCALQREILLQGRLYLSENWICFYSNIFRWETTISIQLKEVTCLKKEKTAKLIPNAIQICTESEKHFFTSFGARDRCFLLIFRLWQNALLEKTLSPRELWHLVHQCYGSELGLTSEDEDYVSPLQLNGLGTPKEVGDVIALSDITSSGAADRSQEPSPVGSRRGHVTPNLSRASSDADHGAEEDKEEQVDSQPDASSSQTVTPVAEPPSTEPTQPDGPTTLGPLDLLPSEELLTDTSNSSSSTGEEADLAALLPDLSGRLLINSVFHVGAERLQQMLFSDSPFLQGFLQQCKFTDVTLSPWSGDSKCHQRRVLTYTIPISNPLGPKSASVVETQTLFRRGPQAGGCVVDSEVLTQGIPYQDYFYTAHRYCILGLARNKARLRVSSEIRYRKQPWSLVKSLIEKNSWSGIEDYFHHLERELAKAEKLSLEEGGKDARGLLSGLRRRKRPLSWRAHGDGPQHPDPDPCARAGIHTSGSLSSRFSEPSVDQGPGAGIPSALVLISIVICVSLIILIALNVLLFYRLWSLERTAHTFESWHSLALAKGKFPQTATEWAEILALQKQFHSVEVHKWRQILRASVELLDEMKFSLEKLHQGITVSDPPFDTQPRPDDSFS

Protein Aster-A [2] = biological target: T1, Protein Aster-A; experiment: Binding affinity to aster A (unknown origin) by fluorescence polarization method
[3] = biological target: T2, Protein Aster-A (Homo sapiens) (UniProt Q96CP6); experiment: Binding affinity to aster A (unknown origin) assessed as change in melting temperature by differential scanning fluorimetry analysis
T2 sequence (whole entry): T1 sequence (Q96CP6 whole entry)

[4] = biological target: Oxysterol-binding protein-related protein 1 (OSBPL1A) (Homo sapiens) (UniProt Q9BXW6); experiment: Binding affinity to ORP1 (unknown origin)
Protein Aster-A [5] = biological target: T1, Protein Aster-A; experiment: Displacement of tert-butyl 2-(4-((3-(4-(3-((2-(2,6-dioxopiperidin-3-yl)-1,3-dioxoisoindolin-4-yl)amino)propoxy)butoxy)propyl)carbamoyl)benzamido)-3a,6,7,7a-tetrahydrothiazolo[5,4-c]pyridine-5(4H)-carboxylate from aster A (unknown origin) assessed as change in fluorescence intensity
Protein Aster-A [6] = biological target: T1, Protein Aster-A; experiment: Displacement of 22-NBD-Chol from aster A (unknown origin) by fluorescence polarization method
MCF7 = experiment: Inhibition of autophagy in human MCF7 cells expressing eGFP-LC3; format: functional, cell-based
Homo sapiens = organism: Homo sapiens; experiment: Binding affinity to aster B (unknown origin)
[7] = biological target: Protein Aster-C (Homo sapiens) (UniProt Q8IYS0); experiment: Binding affinity to aster C (unknown origin)
[8] = biological target: T3, Steroidogenic acute regulatory protein, mitochondrial (Homo sapiens) (UniProt P49675); experiment: Binding affinity to STARD1 (unknown origin)
T3 sequence (whole entry): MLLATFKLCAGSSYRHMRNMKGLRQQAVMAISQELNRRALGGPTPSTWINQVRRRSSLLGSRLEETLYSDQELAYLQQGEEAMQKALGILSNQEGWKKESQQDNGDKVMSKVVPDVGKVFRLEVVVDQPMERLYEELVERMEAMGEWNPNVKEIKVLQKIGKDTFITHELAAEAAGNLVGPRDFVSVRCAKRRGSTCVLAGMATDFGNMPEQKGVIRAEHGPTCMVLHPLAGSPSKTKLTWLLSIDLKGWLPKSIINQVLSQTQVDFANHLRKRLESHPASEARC

[9] = biological target: T4, Protein cereblon/Protein Aster-A (Homo sapiens, UniProt Q96SW2+Q96CP6); experiment: PROTAC activity at CRBN/aster A in human HeLa cells at 10 uM incubated for 18 hrs by Western blotting analysis; format: cell-based
Target sequence in this assay (Q96SW2 whole entry, looked up, one chain of several): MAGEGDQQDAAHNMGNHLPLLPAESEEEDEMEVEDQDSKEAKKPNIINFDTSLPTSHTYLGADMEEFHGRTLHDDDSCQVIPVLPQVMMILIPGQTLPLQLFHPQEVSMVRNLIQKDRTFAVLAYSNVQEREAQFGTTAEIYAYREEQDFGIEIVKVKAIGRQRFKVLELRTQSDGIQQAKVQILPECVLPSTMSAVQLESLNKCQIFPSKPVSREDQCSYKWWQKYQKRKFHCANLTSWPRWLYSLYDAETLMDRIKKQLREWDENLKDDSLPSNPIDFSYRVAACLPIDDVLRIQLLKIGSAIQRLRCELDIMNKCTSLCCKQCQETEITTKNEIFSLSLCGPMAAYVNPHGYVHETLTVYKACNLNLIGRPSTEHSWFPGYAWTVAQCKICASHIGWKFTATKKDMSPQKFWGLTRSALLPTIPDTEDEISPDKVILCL

[10] = biological target: T4, Protein cereblon/Protein Aster-A; experiment: PROTAC activity at CRBN/aster A in human HeLa cells assessed as aster A degradation incubated for 18 hrs by Western blotting analysis; format: cell-based
[11] = biological target: T4, Protein cereblon/Protein Aster-A; experiment: PROTAC activity at CRBN/aster A in human HeLa cells assessed as maximum degradation incubated for 18 hrs by Western blotting analysis; format: cell-based
Target sequence in this assay (Q96SW2 whole entry, looked up, one chain of several): as above

[12] = biological target: T4, Protein cereblon/Protein Aster-A; experiment: PROTAC activity at CRBN/aster A in human HeLa cells assessed as aster A degradation at 10 uM incubated for 18 hrs in presence of MLN4924 by Western blotting analysis; format: cell-based
Target sequence in this assay (Q96SW2 whole entry, looked up, one chain of several): as above

[13] = biological target: T4, Protein cereblon/Protein Aster-A; experiment: PROTAC activity at CRBN/aster A in human HeLa cells assessed as aster A degradation at 10 uM incubated for 18 hrs in presence of MG132 by Western blotting analysis; format: cell-based
Target sequence in this assay (Q96SW2 whole entry, looked up, one chain of several): as above

[14] = biological target: T2, Protein Aster-A (Homo sapiens); experiment: Induction of aster A degradation in human MCF7 cells; format: cell-based
[15] = biological target: T2, Protein Aster-A (Homo sapiens); experiment: Induction of aster A degradation in human A549 cells; format: cell-based
[16] = Drug uptake in human HeLa cells assessed as increase in intracellular fluorescence at 10 uM incubated for 1 hr by […] microscopic analysis; format: ADME, cell-based

Chain of Oxysterol-binding protein-related protein 1 (OSBPL1A) (Homo sapiens) (Q9BXW6 whole entry, looked up): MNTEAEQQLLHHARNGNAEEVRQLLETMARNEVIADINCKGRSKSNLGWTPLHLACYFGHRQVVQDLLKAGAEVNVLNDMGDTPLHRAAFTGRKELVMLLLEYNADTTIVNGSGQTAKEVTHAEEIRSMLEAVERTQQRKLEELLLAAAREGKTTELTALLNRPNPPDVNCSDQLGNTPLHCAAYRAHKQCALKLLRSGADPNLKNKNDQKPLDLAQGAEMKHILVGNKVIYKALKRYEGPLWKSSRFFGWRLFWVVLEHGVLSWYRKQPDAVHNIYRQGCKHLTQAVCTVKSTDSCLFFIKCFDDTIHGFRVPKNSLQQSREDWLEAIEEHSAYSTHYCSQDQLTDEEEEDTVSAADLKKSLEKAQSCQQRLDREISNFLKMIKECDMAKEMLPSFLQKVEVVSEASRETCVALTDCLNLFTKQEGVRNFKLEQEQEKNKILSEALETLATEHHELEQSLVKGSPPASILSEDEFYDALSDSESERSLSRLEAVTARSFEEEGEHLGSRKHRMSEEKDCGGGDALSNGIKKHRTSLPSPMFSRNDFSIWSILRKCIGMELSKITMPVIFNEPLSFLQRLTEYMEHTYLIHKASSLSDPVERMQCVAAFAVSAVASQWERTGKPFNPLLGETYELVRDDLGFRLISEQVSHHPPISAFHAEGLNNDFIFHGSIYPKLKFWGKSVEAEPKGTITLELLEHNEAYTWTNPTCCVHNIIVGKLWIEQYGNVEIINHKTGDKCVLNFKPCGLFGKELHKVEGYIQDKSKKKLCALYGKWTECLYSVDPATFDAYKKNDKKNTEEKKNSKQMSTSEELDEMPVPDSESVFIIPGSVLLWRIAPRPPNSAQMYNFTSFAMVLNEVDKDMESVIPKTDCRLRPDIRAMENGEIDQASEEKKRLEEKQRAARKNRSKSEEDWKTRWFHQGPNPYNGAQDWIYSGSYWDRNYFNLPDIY
Chain of Protein Aster-C (Homo sapiens) (Q8IYS0 whole entry): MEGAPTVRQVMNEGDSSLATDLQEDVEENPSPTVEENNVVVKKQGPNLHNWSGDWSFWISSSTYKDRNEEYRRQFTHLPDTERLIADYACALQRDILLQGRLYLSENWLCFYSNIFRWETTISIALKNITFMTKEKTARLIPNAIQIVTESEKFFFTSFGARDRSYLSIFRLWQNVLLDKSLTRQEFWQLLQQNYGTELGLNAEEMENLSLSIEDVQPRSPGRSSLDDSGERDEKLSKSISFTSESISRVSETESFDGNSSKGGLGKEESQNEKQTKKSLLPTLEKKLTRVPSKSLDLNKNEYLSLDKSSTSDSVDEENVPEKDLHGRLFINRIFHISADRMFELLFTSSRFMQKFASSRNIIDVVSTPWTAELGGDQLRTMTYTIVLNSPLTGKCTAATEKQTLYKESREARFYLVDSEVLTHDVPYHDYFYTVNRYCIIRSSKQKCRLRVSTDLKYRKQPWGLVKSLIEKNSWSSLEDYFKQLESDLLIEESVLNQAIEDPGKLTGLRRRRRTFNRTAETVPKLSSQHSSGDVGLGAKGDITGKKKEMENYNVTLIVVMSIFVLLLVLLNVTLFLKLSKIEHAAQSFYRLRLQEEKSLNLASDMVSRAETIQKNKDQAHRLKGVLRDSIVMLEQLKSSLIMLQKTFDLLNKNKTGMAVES

| Compound | Kd (Protein Aster-A [1]) | Kd (Protein Aster-A [2]) | ΔTm [3] | Activity [4] | IC50 (Protein Aster-A [5]) | IC50 (Protein Aster-A [6]) | Autophagy inhibition (active/not active) (MCF7) | other results |
| --- | --- | --- | --- | --- | --- | --- | --- | --- |
| CC(C)(C)OC(=O)N1CCC2N=C(NC(=O)c3ccc(C(=O)NCCOCCOCCOCCNc4cccc5c4C(=O)N(C4CCC(=O)NC4=O)C5=O)cc3)SC2C1 (configuration not stated) | 88 nM | 49 nM | 4.9 °C | Active |  |  |  |  |
| Cc1ncsc1-c1ccc(CNC(=O)[C@H]2C[C@H](O)CN2C(=O)[C@@H](NC(=O)CCCCCCNC(=O)c2ccc(C(=O)Nc3nc4c(s3)CN(C(=O)OC(C)(C)C)CC4)cc2)C(C)(C)C)cc1 |  |  | 3.6 °C |  | 2750 nM | 4680 nM |  |  |
| CC(C)(C)OC(=O)N1CCC2N=C(NC(=O)c3ccc(C(=O)NCCCCCCCCCCNc4cccc5c4C(=O)N(C4CCC(=O)NC4=O)C5=O)cc3)SC2C1 (configuration not stated) | > 5000 nM | > 5000 nM | 1.2 °C | Active |  |  | inactive |  |
| Cc1ncsc1-c1ccc(CNC(=O)[C@H]2C[C@H](O)CN2C(=O)[C@@H](NC(=O)COCCOCCNC(=O)c2ccc(C(=O)Nc3nc4c(s3)CN(C(=O)OC(C)(C)C)CC4)cc2)C(C)(C)C)cc1 |  |  | 4.4 °C |  | 1470 nM | 3700 nM |  |  |
| CC(C)(C)OC(=O)NCCOCCOCCNc1cccc2c1C(=O)N(C1CCC(=O)NC1=O)C2=O (configuration not stated) | > 5000 nM | > 5000 nM | 0.3 °C |  |  |  |  |  |
| Nc1cccc2c1C(=O)N(C1CCC(=O)NC1=O)C2=O (configuration not stated) [POMALIDOMIDE] | > 5000 nM | > 5000 nM | 0.1 °C |  |  |  |  |  |
| CC12CCC(O)CC1CCc1cnn(-c3ccccc3F)c12 (configuration not stated) |  |  | 0.2 °C |  | > 10000 nM | > 10000 nM |  |  |
| CC(C)(C)OC(=O)N1CCC2N=C(NC(=O)c3ccc(C(=O)NCCCOCCOCCCNc4cccc5c4C(=O)N(C4CCC(=O)NC4=O)C5=O)cc3)SC2C1 (configuration not stated) | 110 nM | 37 nM | 5 °C | Active |  |  |  |  |
| CC(C)Oc1ccc(C(=O)Nc2nc3c(s2)CN(C(=O)OC(C)(C)C)CC3)cc1 |  |  | 6.8 °C |  | 1180 nM | 1930 nM |  |  |
| CC(C)(C)OC(=O)N1CCC2N=C(NC(=O)c3ccc(C(=O)NCCCOCCCCOCCCNc4cccc5c4C(=O)N(C4CCC(=O)NC4=O)C5=O)cc3)SC2C1 (configuration not stated) | 83 nM | 90 nM | 5.7 °C | Active |  |  | Active | Activity (Homo sapiens): inactive; Activity [7]: inactive; Activity [8]: inactive; Activity [9]: 50%; Activity [10]: Dose-Dependent Effect; DC50 [10]: 4800 nM; Emax [11]: 60%; Activity [12]: inactive; Activity [13]: inactive; Activity [14]: inactive; Activity [15]: inactive |
| CC(C)(C)OC(=O)N1CCC2N=C(NC(=O)c3ccc(C(=O)NCCCOCCOCCOCCCNc4cccc5c4C(=O)N(C4CCC(=O)NC4=O)C5=O)cc3)SC2C1 (configuration not stated) | 86 nM | 68 nM | 5.8 °C | Active |  |  | Active |  |
| CC(C)(C)OC(=O)N1CCC2N=C(NC(=O)c3ccc(C(=O)NCCCCCCNc4cccc5c4C(=O)N(C4CCC(=O)NC4=O)C5=O)cc3)SC2C1 (configuration not stated) | 765 nM | 745 nM | 3.2 °C | Active |  |  | inactive | Drug uptake [16]: Active |
| CC(C)(C)OC(=O)N1CCC2N=C(NC(=O)c3ccc(C(=O)NCCOCCOCCNc4cccc5c4C(=O)N(C4CCC(=O)NC4=O)C5=O)cc3)SC2C1 (configuration not stated) | > 5000 nM | 149 nM | 4 °C | Active |  |  | Active |  |
| Cc1ncsc1-c1ccc(CNC(=O)[C@H]2C[C@H](O)CN2C(=O)[C@@H](NC(=O)CCCCCCCCCNC(=O)c2ccc(C(=O)Nc3nc4c(s3)CN(C(=O)OC(C)(C)C)CC4)cc2)C(C)(C)C)cc1 |  |  | 1.6 °C |  | > 10000 nM | > 10000 nM |  |  |
| CCN(CC)CCO[C@H]1CC[C@@]2(C)C(=CC[C@@H]3[C@@H]2CC[C@]2(C)C(=O)CC[C@@H]32)C1 |  |  | 5.6 °C |  |  |  |  |  |
